In US20240293402A1, “FORMULATION CONTAINING DIHYDROPYRIDAZINE-3,5-DIONE DERIVATIVE (as amended)” (CHUGAI SEIYAKU KABUSHIKI KAISHA, priority 2021, published 2024):

Key:
Solubility in water = format: physicochemical; details: general statement
NaPi-IIb = target: T1, NaPi-IIb (Homo sapiens, UniProt O95436); details: general statement, reported in Patent Literatures 6 and 7; cited from earlier work
T1 sequence (O95436 1-690): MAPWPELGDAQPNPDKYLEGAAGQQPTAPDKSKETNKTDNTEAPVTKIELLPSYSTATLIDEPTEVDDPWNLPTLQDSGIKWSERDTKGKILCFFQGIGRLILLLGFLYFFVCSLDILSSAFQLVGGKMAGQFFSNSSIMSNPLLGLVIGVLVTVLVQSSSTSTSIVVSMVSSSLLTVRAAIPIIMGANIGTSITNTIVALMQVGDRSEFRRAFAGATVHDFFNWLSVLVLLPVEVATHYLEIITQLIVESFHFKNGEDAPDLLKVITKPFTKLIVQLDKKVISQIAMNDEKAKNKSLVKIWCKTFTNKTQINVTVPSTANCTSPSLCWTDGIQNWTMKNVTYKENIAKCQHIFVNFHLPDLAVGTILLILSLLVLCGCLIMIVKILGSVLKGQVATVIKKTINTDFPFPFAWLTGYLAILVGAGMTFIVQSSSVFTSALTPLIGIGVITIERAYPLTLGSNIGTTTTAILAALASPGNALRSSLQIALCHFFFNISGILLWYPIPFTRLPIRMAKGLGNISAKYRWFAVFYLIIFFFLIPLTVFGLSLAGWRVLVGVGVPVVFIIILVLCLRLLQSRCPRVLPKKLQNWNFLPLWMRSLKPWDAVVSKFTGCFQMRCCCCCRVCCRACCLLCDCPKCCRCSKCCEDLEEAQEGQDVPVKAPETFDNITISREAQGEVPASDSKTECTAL

PiT-2 = target: T2, PiT-2 (Homo sapiens, UniProt Q08357); details: general statement, reported in Patent Literatures 6 and 7; cited from earlier work
T2 sequence (Q08357 1-652): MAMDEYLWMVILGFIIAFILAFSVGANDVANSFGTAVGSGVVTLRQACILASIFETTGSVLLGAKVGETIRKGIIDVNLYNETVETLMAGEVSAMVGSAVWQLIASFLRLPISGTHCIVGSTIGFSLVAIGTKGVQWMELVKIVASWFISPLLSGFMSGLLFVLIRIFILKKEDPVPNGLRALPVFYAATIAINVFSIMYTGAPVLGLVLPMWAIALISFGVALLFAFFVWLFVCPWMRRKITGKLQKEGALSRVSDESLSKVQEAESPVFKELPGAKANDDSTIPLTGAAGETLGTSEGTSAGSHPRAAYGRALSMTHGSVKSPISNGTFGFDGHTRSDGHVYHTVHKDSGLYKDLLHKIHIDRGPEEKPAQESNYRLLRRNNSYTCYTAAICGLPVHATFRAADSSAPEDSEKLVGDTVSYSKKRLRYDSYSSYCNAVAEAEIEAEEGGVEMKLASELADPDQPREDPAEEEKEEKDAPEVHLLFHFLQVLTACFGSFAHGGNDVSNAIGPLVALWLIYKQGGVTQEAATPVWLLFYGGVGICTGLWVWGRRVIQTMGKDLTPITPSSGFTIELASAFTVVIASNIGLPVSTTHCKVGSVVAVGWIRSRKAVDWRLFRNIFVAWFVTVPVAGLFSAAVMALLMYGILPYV

PiT-1 = target: T3, PiT-1 (Homo sapiens, UniProt Q8WUM9); details: general statement, reported in Patent Literatures 6 and 7; cited from earlier work
T3 sequence (Q8WUM9 1-679): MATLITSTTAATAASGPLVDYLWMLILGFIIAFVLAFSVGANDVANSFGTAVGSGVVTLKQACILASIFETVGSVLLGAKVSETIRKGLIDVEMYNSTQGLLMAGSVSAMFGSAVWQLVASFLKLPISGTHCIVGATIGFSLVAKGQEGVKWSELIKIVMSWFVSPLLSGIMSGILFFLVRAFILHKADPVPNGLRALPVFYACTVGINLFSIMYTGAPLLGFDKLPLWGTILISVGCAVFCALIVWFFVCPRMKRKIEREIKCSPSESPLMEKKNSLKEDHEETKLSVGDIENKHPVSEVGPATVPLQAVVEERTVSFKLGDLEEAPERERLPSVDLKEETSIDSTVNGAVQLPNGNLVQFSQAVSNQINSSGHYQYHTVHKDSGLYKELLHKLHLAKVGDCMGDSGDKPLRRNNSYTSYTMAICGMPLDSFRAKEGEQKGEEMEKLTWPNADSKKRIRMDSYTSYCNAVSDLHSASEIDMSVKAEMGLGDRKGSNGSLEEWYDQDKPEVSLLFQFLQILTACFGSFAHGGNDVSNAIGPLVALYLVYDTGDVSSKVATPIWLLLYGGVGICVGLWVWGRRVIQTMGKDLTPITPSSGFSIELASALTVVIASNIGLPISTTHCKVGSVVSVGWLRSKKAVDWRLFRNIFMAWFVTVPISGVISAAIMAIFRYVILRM

solubility in water (Solubility in water): hardly soluble in water
Structure (SMILES): COCCN(C)CCOc1ccc(CN2C(=O)C(C(=O)Nc3ccc(C(F)(F)F)cc3-c3cc(C(F)(F)F)ncn3)=C(O)C3(CCCC3)N2C)c(F)c1F.Cc1ccc(S(=O)(=O)O)cc1 [Compound I, 7-[[2,3-difluoro-4-[2-[2-methoxyethyl(methyl)amino]ethoxy]phenyl]methyl]-10-hydroxy-6-methyl-8-oxo-N-[4-(trifluoromethyl)-2-[6-(trifluoromethyl)pyrimidin-4-yl]phenyl]-6,7-diazaspiro[4,5]deca-9-ene-9-carboxamide]
inhibitory action on NaPi-IIb (NaPi-IIb): strong inhibitory action
inhibitory action on PiT-2 (PiT-2): strong inhibitory action
inhibitory action on PiT-1 (PiT-1): strong inhibitory action
